Measured values reported in US9913838B2, “Methods of treating cancer using compositions comprising perillyl alcohol derivative” (NEONC TECHNOLOGIES INC., priority 2010, dated 2018).
Read-outs that look alike come from different tables or passages of the source.

Legend:
[1] = system: subcutaneous U-87 gliomas; assay: Nude mouse subcutaneous glioma model, local application; assay type: in vivo, nude mice; details: local application via Q-tip daily over 8 weeks; ranking in words
Method: Inhibition of tumor growth by butyryl-POH was studied in a nude mouse subcutaneous glioma model. Mice were injected with U-87 glioma cells (500,000 cells/injection) and allowed to form a palpable nodule over two weeks. Once palpable nodule was formed, the mice were treated with local application of various compounds as indicated in FIGS. 9A and 9B via a Q-tip (1 cc/application/day) over a period of 8 weeks.

TMZ-resistant tumors = details: O6-BG and TMZ, cited from earlier work
MDA-MB-231 = assay: cells
Method: (§1) Depending on the cell line (and plating efficiency), 200-350 cells were seeded into each well of a 6-well plate. […] Thereafter, the drugs were removed, fresh growth medium was added, and the cells were kept in culture undisturbed for 12-16 days, during which time the surviving cells spawned colonies of descendants. Colonies (defined as groups of >50 cells) were visualized by staining for 4 hours with 1% methylene blue (in methanol), and then were counted.
(§2) In the case of O6-BG treatment, cells were pretreated with 10 μM O6-BG for one hour before addition of TMZ or TMZ-POH. After 24 hours, another 10 μM O6-BG was added to the medium. Another 24 hours later, drug-laced medium was removed, and fresh medium without drugs was added. Thereafter, cells remained undisturbed until staining with methylene blue.
(§3) The cytotoxic potency of TMZ-POH, was analyzed by colony formation assay (CFA) in a variety of human breast cancer cell lines and compared to the cytotoxicity of TMZ. We used estrogen receptor positive cells MCF7 and T47D, the triple-negative lines MDA-MB-231, MDA-MB-468, and HCC-1937, and a brain-seeking variant of the 231 cell line, MDA-MB-231-br.
Thus, we tested whether simply mixing the two compounds TMZ and POH could mimic the effects of the TMZ-POH conjugate. MDA-MB-231 cells were treated with the individual compounds (TMZ-POH, TMZ or POH) alone, or with an equimolar mix of TMZ plus POH, and cell survival was analyzed by CFA.

MCF7 = assay: Colony formation assay, MCF7; details: pre-treated with O6-BG for 60 minutes; MCF7
Method: as §1, §2, §3

MDA-MB-468 = assay: Colony formation assay, MDA-MB-468; details: pre-treated with O6-BG for 60 minutes; MDA-MB-468
Method: as §1, §2, §3

231-MGMT-1 = assay: Colony formation assay, MGMT-transfected 231-MGMT-1; assay type: cell-based, human; details: pre-treated with O6-BG for 60 minutes; 231-MGMT-1
Method: as §1, §2
(§4) MDA-MB-231 cells were co-transfected in 6-well plates with the use of Lipofectamine 2000 (Invitrogen, Carlsbad, Calif.) according to manufacturer's instructions. 2 μg pSV2MGMT (containing the human MGMT cDNA) was combined with 0.2 μg pSV2neo (containing the neomycin gene for selection of cells in G418). Both plasmids were provided by Bernd Kaina (Mainz, Germany). Individual clones of transfected cells were selected in medium containing 750 μg/mL G418 and propagated in 250 μg/mL G418. G418 was obtained as G418 disulfate salt from Sigma-Aldrich and dissolved in PBS at 75 mg/mL. Selection medium was removed from cells several days before experimental drug treatment.
(§5) To investigate the latter, we stably transfected MGMT-negative MDA-MB-231 cells with MGMT cDNA and isolated individual clones. […] Both clones were treated with increasing concentrations of TMZ-POH and TMZ and analyzed by CFA.

MGMT = assay: Western blot of MGMT protein levels in MDA-MB-468 cells; assay type: cell-based, human; details: MDA-MB-468, 17 hours; in words
Method: In FIG. 21C, MDA-MB-468 cells were treated with the indicated concentrations of TMZ-POH, TMZ, or O6-BG for 17 hours before harvest of cellular lysates. vh.=cells treated with vehicle only.
(§6) Total cell lysates were analyzed by Western blot analysis as described in P. Pyrko et al. Downregulation of survivin expression and concomitant induction of apoptosis by celecoxib and its non-cyclooxygenase-2-inhibitory analog, dimethyl-celecoxib (DMC), in tumor cells in vitro and in vivo. Mol Cancer 5 (2006) 19. The primary antibodies were purchased from Cell Signaling Technology (Beverly, Mass.) or Santa Cruz Biotechnology, Inc. (Santa Cruz, Calif.) and used according to the manufacturers' recommendations. All immunoblots were repeated at least once to confirm the results.
The major cytotoxic DNA lesion set by TMZ is methylation of O6-guanine, and it is well known that removal of this methyl group by MGMT leads to rapid degradation of the DNA repair protein.

231-MGMT-2 = assay: Colony formation assay, MGMT-transfected 231-MGMT-2; assay type: cell-based, human; details: pre-treated with O6-BG for 60 minutes; 231-MGMT-2
Method: as §1, §2, §4, §5

[2] = system: USC-02 glioma cancer stem cells; assay: MTT cytotoxicity assay, USC-02 glioma cancer stem cells; assay type: cell-based; details: TMZ 0-400 uM, POH 0-2 mM, in words
From the text: Cancer Lett. 2011 Mar. 28; 302(2):100-8.

[3] = system: TMZ resistant (U251TR) U251 cells; assay: Colony forming assay, TMZ resistant U251TR cells; assay type: cell-based, human; details: in words
Method: (§7) Colony forming assays were carried out after cells were treated with TMZ alone, POH alone, and the TMZ-POH conjugate. […] Cancer Lett. 2011 Mar. 28; 302(2):100-8.

[4] = system: TMZ sensitive (U251) cells; assay: Colony forming assay, TMZ sensitive U251 cells; assay type: cell-based, human; details: in words
Method: as §7

[5] = system: γ-H2AX, activated caspase 7 and cleaved PARP; assay: DNA damage and cell death marker analysis in MDA-MB-231 cells (Western blot); assay type: cell-based, human; details: MDA-MB-231, 20 μM, after 5 days of treatment; in words
Method: FIGS. 25A-25B show DNA damage and cell death marker analysis, where MDA-MB-231 cells were used for Western blot analysis of expression levels for markers of DNA damage (γ-H2AX) and cell death (activated caspase 7 and cleaved PARP). In FIG. 25A, cells were treated with 15 μM TMZ-POH and harvested every 24 hours up to 6 days; control cells remained untreated, or received vehicle (vh.) only. In FIG. 25B, cells were treated with 20 μM of either TMZ-POH, TMZ, or POH individually, or with 20 μM TMZ combined with 20 μM POH (TMZ+POH) and harvested after 24 hours or 5 days; control cells remained untreated, or received vehicle (vh.) only. In the case of caspase 7, only the activated (cleaved) form is shown (cl. C-7).
as §6
It is known that GBM cells treated with physiological concentrations of TMZ (<100 μM) in vitro can survive for several (5-7) days seemingly unaffected before substantial cell death becomes apparent. We observed a similar phenotype when breast cancer cell lines were treated with TMZ-POH, i.e., cell cultures only began to deteriorate approximately a week after the onset of drug treatment. In order to characterize TMZ-POH-induced cell death in greater detail, we treated MDA-MB-231 cells with 15 μM of the drug and collected cell lysates daily over the course of 6 days. The lysates were analyzed by Western blot for the presence of two apoptosis markers, cleaved (i.e. activated) caspase 7 and cleaved PARP-1 (poly ADP-ribose polymerase-1), along with the DNA damage marker γ-H2AX.
As shown in FIGS. 20A-20B above, an equimolar combination of TMZ+POH was unable to achieve the same potency in blocking colony survival as the TMZ-POH conjugate. […] We treated cells with the same concentration (20 μM) of TMZ-POH, TMZ, POH, or TMZ combined with POH (TMZ+POH), and analyzed the induction of γ-H2AX, activated caspase 7, and cleaved PARP. […] Thus, the results from the cell survival assay (FIGS. 20A-20B) correlated closely with the effects of these compounds on DNA damage and apoptosis markers (FIG. 25B), and in all cases TMZ-POH clearly generated the strongest anticancer impact.

U251 human glioma cells = assay: MTT cytotoxicity assay, U251 glioma cells; details: for cytotoxicity (MTT assay): U251, result in words
From the text: (§8) In vitro efficacy of the present composition can be determined using methods well known in the art. For example, the cytoxicity of the present monoterpene (or sesquiterpene) and/or the therapeutic agents may be studied by MTT [3-(4,5-dimethylthiazol-2-yl)-2,5-diphenyl tetrazolium bromide] cytotoxicity assay. MTT assay is based on the principle of uptake of MTT, a tetrazolium salt, by metabolically active cells where it is metabolized into a blue colored formazon product, which can be read spectrometrically. J. of Immunological Methods 65: 55 63, 1983. The cytoxicity of the present monoterpene (or sesquiterpene) derivative and/or the therapeutic agents may be studied by colony formation assay. Functional assays for inhibition of VEGF secretion and IL-8 secretion may be performed via ELISA. Cell cycle block by the present monoterpene (or sesquiterpene) derivative and/or the therapeutic agents may be studied by standard propidium iodide (PI) staining and flow cytometry. Invasion inhibition may be studied by Boyden chambers. In this assay a layer of reconstituted basement membrane, Matrigel, is coated onto chemotaxis filters and acts as a barrier to the migration of cells in the Boyden chambers. Only cells with invasive capacity can cross the Matrigel barrier. Other assays include, but are not limited to cell viability assays, apoptosis assays, and morphological assays.
(§9) First cytotoxicity assays were carried out after cells were treated with dimethyl-celecoxib (DMC) alone.
(§10) Then U87, A172 and U251 cells were treated with dimethyl celecoxib bisPOH carbamate (POH−DMC) (e.g., synthesized by the method in Example 1), and the MTT cytotoxicity assays performed (FIG. 2).
(§11) First cytotoxicity assays were carried out after cells were treated with temozolomide (TMZ) alone, the standard alkylating agent used in the treatment of malignant gliomas.
(§12) Then TMZ-resistant glioma cell lines U87, A172 and U251 cells were treated with TMZ-POH (e.g., synthesized by the method in Example 3).
(§13) To compare the cytotoxicity of Rolipram POH Carbamate (POH-Rolipram) (e.g., synthesized by the method in Example 5) with rolipram, […] inducing differentiation and apoptosis in glioma cells, A172, U87, U251 and LN229 human glioma cells were treated with either POH-Rolipram or rolipram for 48 hours.
MTT cytotoxicity assays were carried out after cells were treated with the TMZ-POH conjugate. The MTT cytotoxicity assays were carried out as described in Chen T C, et al. Green tea epigallocatechin gallate enhances therapeutic efficacy of temozolomide in orthotopic mouse glioblastoma models. Cancer Lett. 2011 Mar. 28; 302(2):100-8.

LN229 human glioma cells = assay: cells
From the text: as §8, §13

U87 human glioma cells = assay: MTT cytotoxicity assay, U87 glioma cells; details: for cytotoxicity (MTT assay): U87, result in words
From the text: as §8, §9, §10, §11, §12, §13

A172 human glioma cells = assay: MTT cytotoxicity assay, A172 glioma cells; details: for cytotoxicity (MTT assay): A172, result in words
From the text: as §8, §9, §10, §11, §12, §13

Structure (SMILES): C=C(C)C1CC=C(COC(=O)CCC)CC1 (centres unmarked) [Butyryl-POH]
- inhibition of tumor growth [1]: greatest inhibition of tumor growth

Structure (SMILES): Nc1nc(OCc2ccccc2)c2nc[nH]c2n1 [O6-BG, O6-benzylguanine, reference compound]
- fraction of patients with restored TMZ-sensitivity (TMZ-resistant tumors; patients with GBM, no significant effect): 3%
- fraction of patients with restored TMZ-sensitivity (TMZ-resistant tumors; patients with anaplastic glioma): 16%
- effect of O6-BG on survival of cells treated with TMZ-POH or TMZ (MDA-MB-231; pre-treated with O6-BG for 60 minutes, MDA-MB-231): had no effect
- effect of O6-BG on cytotoxic outcome of TMZ-POH and TMZ treatment (MCF7): increased the cytotoxic outcome
- effect of O6-BG on cytotoxic outcome of TMZ-POH and TMZ treatment (MDA-MB-468): increased the cytotoxic outcome
- effect of O6-BG on toxicity of TMZ-POH and TMZ (231-MGMT-1): greatly enhanced toxicity
- MGMT protein levels (MGMT): strongly decreases MGMT protein levels
- effect of O6-BG on toxicity of TMZ-POH and TMZ (231-MGMT-2): greatly enhanced toxicity

Structure (SMILES): C=C(C)[C@@H]1CC=C(CO)CC1 [POH, Perillyl alcohol]
- concentrations required in order to become cytotoxic (MDA-MB-231): above 100 μM
- IC50 (MDA-MB-231; Homo sapiens, MDA-MB-231, 48 h, read-out: IC50 (concentration required to decrease colony formation by 50%)): ~700 µM
- cytotoxicity (MTT assay) [2]: demonstrated cytotoxicity
- cytotoxicity (colony forming assay) [3]: demonstrated cytotoxicity
- cytotoxicity (colony forming assay) [4]: demonstrated cytotoxicity
- induction of γ-H2AX, activated caspase 7, and cleaved PARP [5]: inactive

Structure (SMILES): C=C(C)C1CC=C(COC(=O)N2CC(c3ccc(OC)c(OC4CCCC4)c3)CC2=O)CC1 (centres unmarked) [POH-rolipram, 4-(3-cyclopentyloxy-4-methoxyphenyl)-2-oxo-pyrrolidine-1-carboxylic acid 4-isopropenyl cyclohex-1-enylmethyl ester]
- cytotoxicity (MTT assay) (U251 human glioma cells): substantially higher kill rates compared to rolipram alone
- IC50 (U251 human glioma cells; U251 cells, 48 hours): 50 µM
- cytoxicity (U251 human glioma cells; U251 cells, at 100 uM): ~100%
- cytotoxicity (MTT assay) (LN229 human glioma cells): substantially higher kill rates compared to rolipram alone
- IC50 (LN229 human glioma cells; LN229 cells, 48 hours): 100 µM
- cytotoxicity (MTT assay) (U87 human glioma cells): substantially higher kill rates compared to rolipram alone
- IC50 (U87 human glioma cells; U-87 cells, 48 hours): 180 µM
- cytotoxicity (MTT assay) (A172 human glioma cells): substantially higher kill rates compared to rolipram alone
- IC50 (A172 human glioma cells; A-172 cells, 48 hours): 50 µM

Structure (SMILES): C=C(C)C1CC=C(COC(=O)N(C(=O)OCC2=CCC(C(=C)C)CC2)S(=O)(=O)c2ccc(-n3nc(C(F)(F)F)cc3-c3cc(C)ccc3C)cc2)CC1 (centres unmarked) [POH−DMC]
- cytotoxicity (MTT assay) (U251 human glioma cells): much better cytotoxicity than DMC alone
- cytotoxicity (MTT assay) (U87 human glioma cells): much better cytotoxicity than DMC alone
- cytotoxicity (MTT assay) (A172 human glioma cells): much better cytotoxicity than DMC alone

Structure (SMILES): COc1ccc(C2CNC(=O)C2)cc1OC1CCCC1 (centres unmarked) [rolipram, reference compound]
- IC50 (U251 human glioma cells; Homo sapiens, U-251, 48 h): 170 µM
- plateau cytotoxicity (U251 human glioma cells; U251 cells): 60%
- IC50 (LN229 human glioma cells; Homo sapiens, LN-229, 48 h): > 100 µM
- IC50 (U87 human glioma cells; Homo sapiens, U-87 MG, 48 h): > 1000 µM
- IC50 (A172 human glioma cells; Homo sapiens, A 172, 48 h): ~1000 µM
